Assay results reported in patent US20140364454A1, “METAL-CHELATING COMPOUNDS HAVING AT LEAST ONE POLYAMINO CHAIN” (UNIVERSITE DE RENNES I, priority 2011, published 2014).
Read-outs that look alike come from different tables or passages of the source.

What was measured:
HepG2 cells [1] = assay: Anti-proliferative effect on HepG2 cells (nuclei count or SDH activity); format: cell-based, human; conditions: for IC50: Homo sapiens, HepG2, absence of exogenous iron, read-out: IC50 associated with the cytostatic effect; for IC50 / % of HepG2 cells concerned by the anti-proliferative effect: 72 h; for % of HepG2 cells concerned by the anti-proliferative effect: absence of exogenous iron
Excerpt: The majority of the Quilamines, like ICL670, show biphase dose-effect curves in the absence of exogenous iron, with an anti-proliferative constituent for concentration values of 1 to 10 micromoles per liter and a cytotoxic constituent associated with a release of LDH for concentration values of over 10 micromoles per liter. The percentage of HepG2 cells concerned by the anti-proliferative effect and the values of IC50 associated with this cytostatic effect in the absence of exogenous iron were listed in the table 4 below.
(§1) The implication of PTS in the cytostatic and cytotoxic action of Quilamines was analyzed in proliferating HepG2 hepatocyte tumor cells after activation of PTS or competitive inhibition of PTS by spermidine, a polyamine naturally present in the organism and most efficaciously captured by the PTS. The conditions of treatment by Quilamines are identical to those described in paragraph III-1.
(§2) Inhibiting ornithine decarboxylase (ODC), the key enzyme in the biosynthesis of polyamines, causes a depletion of intra-cell polyamines and an activation of PTS which enables the deficiency to be met. This activation of PTS is done by means of the ODC inhibitor, alpha-difluoromethyl ornithine (DFMO).
(§3) The competitive inhibition of PTS by spermidine is prompted by the co-treatment of the cells by the Quilamines in the presence of spermidine, in a concentration of 50 micromoles per liter.

[2] = tested on: L-ferritin and transferrin receptor genes; assay: RT-qPCR of iron metabolism genes in Caco-2 cells; format: cell-based, human; conditions: Caco-2 in proliferative phase, 10 micromoles per liter, 72 hours
Protocol: After treatment for 72 hours of the Caco-2 cells in proliferative phase by the Quilamine HQ1-44 and ICL670 in a concentration of 10 micromoles per liter, an analysis is carried out by real-time polymerase chain reaction (RT-qPCR) technique of the expression of the two main genes for regulating intra-cell iron metabolism, that of L-ferritin, the iron-storing protein, and that of the transferrin receptor, which is the iron-importing protein of the membrane. The DNAc (complementary dioxyribonucleic acid) synthesized during the reverse transcription are amplified by the qPCR (quantity of polymerization chain reaction) to quantify the expression of the mNRA (messenger ribonucleic acid) of the genes involved in iron metabolism.

Caco-2 cells [3] = assay: Biochemical analysis of intra-cell iron, L-ferritin and transferrin soluble receptor in Caco-2 cells; format: cell-based, human; conditions: 72 hours; for intra-cell iron and L-ferritin concentrations: Caco-2, 10 micromoles per liter; for transferrin-soluble receptor: Caco-2 supernatant, 10 micromoles per liter
Protocol: After treatment for 72 hours of the Caco-2 cells in proliferative phase by Quilamine HQ1-44 and ICL670, biochemical analysis is carried out on the intra-cell iron (Fe2+ and Fe3+), of the two main proteins for regulating iron metabolism by the dosing of the intra-cell concentrations in L-ferritin, the iron storage protein, as well as the analysis of the transferrin soluble receptor the cell supernatant, which is a marker of the concentration in transferrin receptor, the iron importing protein of the membrane.

[4] = tested on: wild cell line (CHO) of hamster ovarian cells; assay: Anti-proliferative effect on CHO cells, counting of cell nuclei (Hoechst 33342); format: cell-based; conditions: CHO
Protocol: The in vitro efficacy of different Quilamines was tested on a wild cell line (CHO) of hamster ovarian cells having PTS and a mutant cell line CHO-MG without PTS. The two cell types CHO and CHO-MG were treated, 24 hours after being seeded in 96-well microplates, by concentrations of different Quilamines ranging from 0.1 to 400 micromoles per liter. The cytostatic (anti-proliferative) effects and cytotoxic effects of Quilamine after 72 hours' treatment of the cells were assessed respectively by counting cell nuclei after DNA marking by the Hoechst 33342 fluorescent intercalant dye and by analysis of membrane damage detected by the dosing of the lactate dehydrogenase activity (LHD) in the supernatants.
The IC50 inhibitor concentration corresponding to the concentration in Quilamines enables the inhibition at 50% of the cell proliferation was deduced from the dose-effect curves of numeration of the nuclei of the living cells on the CHO and CHO-MG cell lines. […] The lower the value of IC50, the greater the efficiency of the anti-proliferative effect of the tested chelators.
A comparison was made of the cytostatic or anti-proliferative action and the cytotoxic action for 72 h of treatment by Quilamine HQ1-44 and 8-hydroxyquinoline and ICL670, on the CHO cell lines in the presence and without the presence of exogenous iron, in the form of Fe(III) citrate in a concentration of 20 micromoles per liter. The results obtained are shown in FIG. 4, FIG. 4A relating to the results on cell viability and FIG. 4B relating to the results on cell toxicity.

Caco-2 cells [5] = assay: Cell viability of proliferating Caco-2 cells (number of nuclei); format: cell-based, human; conditions: for Constituent 1 (1-10 μM) % cell / Constituent 2 (10-100 μM) % cell: Caco-2 J4, no exogenous iron; for IC50: Homo sapiens, no exogenous iron
Protocol: The action of Quilamines on the cell viability was analyzed on enterocyte cells of the Caco-2 tumor cell line derived from human colon carcinoma and compared with the action of ICL670 in the presence or absence of exogenous iron, after activation (DFMO) or competitive inhibition by spermidine, of the PTS. The operating conditions used are identical to those used for CHO/CHO-MG and HepG2 cells.
The results for the measurement of the anti-proliferative effect of Quilamines, and of ICL670 on the proliferating cells (cytostatic constituent) when there is no exogenous iron have been listed in the table 4 below.

[6] = tested on: mutant cell line CHO-MG without PTS; assay: Anti-proliferative effect on CHO-MG cells without PTS, counting of cell nuclei; format: cell-based, hamster; conditions: for IC50: 72 h treatment; for Ratio IC50 (CHO-MG/CHO): selectivity of recognition by the PTS
Excerpt: The IC50 inhibitor concentration corresponding to the concentration in Quilamines enables the inhibition at 50% of the cell proliferation was deduced from the dose-effect curves of numeration of the nuclei of the living cells on the CHO and CHO-MG cell lines. These dose-effect curves are sometimes bi-phase curves as in the case of Quilamine HQ1-44 which has an anti-proliferative constituent (without concomitant release of LDH in supernatant) in the range of concentrations of 0.4 to 3 micromoles per liter and a second cytotoxic constituent accompanied by membrane toxicity expressed by the release of LDH for concentrations of over […]. The lower the value of IC50, the greater the efficiency of the anti-proliferative effect of the tested chelators.
Furthermore, the ratio of the IC50 inhibitor concentrations found for the CHO-MG and the CHO cell lines (Ratio IC50 (CHO-MG/CHO)) was computed for several Quilamines according to the invention. This ratio makes it possible to estimate the selectivity of recognition of the different chelators by the PTS: the higher the ratio, the more clearly is the chelator recognized by the PTS. When this ratio is close to 1, the tested chelator is not recognized or is little recognized by the PTS.

HepG2 cells [7] = assay: Cytotoxic effect on HepG2 cells, LDH release; format: cell-based, human; conditions: for influence of exogenous iron on the cytotoxic effect: HepG2, presence of exogenous iron
Protocol: as §1, §2, §3

[8] = Fe(III) citrate 20 micromoles per liter
[9] = 72 h treatment, no exogenous iron, read-out: IC50 CHO
[10] = Caco-2 J4, cytostatic constituent, read-out: Constituent 1 (1-10 μM) IC50
[11] = Caco-2 J4, cytotoxic constituent, read-out: Constituent 2 (10-100 μM) IC50

Structure (SMILES)	IC50 (HepG2 cells [1])	% of HepG2 cells concerned by the anti-proliferative effect (HepG2 cells [1])	expression of the genes for L-ferritin and the transferrin receptor [2]	intra-cell iron and L-ferritin concentrations (Caco-2 cells [3])	transferrin-soluble receptor (Caco-2 cells [3])	influence of exogenous iron on the cytostatic (anti-proliferative) effect [4, 8]	IC50 [4, 9]	Constituent 1 (1-10 μM) % cell (Caco-2 cells [5])	Constituent 2 (10-100 μM) % cell (Caco-2 cells [5])	IC50 (Caco-2 cells [5]; [10])	IC50 (Caco-2 cells [5]; [11])	IC50 ([6]; CHO-MG, 72 h)	Ratio IC50 (CHO-MG/CHO) [6]	influence of exogenous iron on the cytotoxic effect (HepG2 cells [7])	further results
O=C(O)c1ccc(-n2nc(-c3ccccc3O)nc2-c2ccccc2O)cc1 [ICL670, reference compound]	3.85 µM	72.5%	do not significantly modify	intra-cell iron depletion	no significant effect	inhibition	9.2 µM	18%	82%	1.7 µM	90 µM	8 µM	1	inhibition	influence of exogenous iron on the cytostatic effect (Caco-2 cells [5]; Caco-2, after addition of exogenous iron): inhibition; concentration of the cytotoxic constituent associated with release of LDH (HepG2 cells [7]; HepG2, absence of exogenous iron): over 10 micromoles per liter
NCCCCNCCCCNCc1ccc2cccc(O)c2n1 [HQ1-44, 2-[4-(4-aminobutyl)aminobutyl]aminomethylquinolin-8-ol]	2.75 µM	30%	do not significantly modify	intra-cell iron depletion	no significant effect	improvement	1.4 µM	70%	30%	1.3 µM	20 µM	344 µM	249	partially inhibited	influence of competitive inhibition of PTS by spermidine on the cytostatic effects (HepG2 cells [1]; HepG2, spermidine 50 micromoles per liter, Quilamine below 10 micromoles per liter): inhibition; IC50 ([4]; Fe(III) citrate 20 micromoles per liter, 72 h, read-out: IC50 CHO in the presence of exogenous iron): 0.6 µM; IC50 [6]: 344 µM; influence of PTS activation by DFMO pre-treatment on cytotoxicity (HepG2 cells [7]; HepG2, concentrations greater than 50 micromoles per liter (50-100)): amplification; influence of competitive inhibition of PTS by spermidine on the cytotoxic effects (HepG2 cells [7]; HepG2, spermidine 50 micromoles per liter, Quilamine 50 to 100 micromoles per liter): inhibition
